Key:
DDR1 [1] = target: T1, DDR1 (Homo sapiens, UniProt Q08345); test: LanthaScreen Eu-Kinase Binding Assay (TR-FRET tracer displacement), DDR1; conditions: catalytic domain GST Tag DDR1; Kinase Tracer 178
T1 construct: The enzymes were purchased as a catalytic domain GST Tag DDR1(#PR6913A); purchased ThermoFisher PR6913A
Excerpt: (§1) DDR1/2 binding assay: The binding assay relies on the LanthaScreen ™ Eu-Kinase Binding Assay (ThermoFisher Scientfic). This is a kinase assay platform based on measuring the binding and displacement of an Alexa Fluor® conjugate of an ATP-competitive kinase inhibitor or tracer at a kinase active site (Kinase Tracer 178. #PV5593). Binding of the tracer to the kinase is detected by addition of a europium (Eu)-labeled anti-GST antibody (#PV 5594) which specifically labels the kinase of interest. This binding results in a high degree of fluorescence resonance energy transfer (FRET), whereas displacement of the tracer with a kinase inhibitor results in a loss of FRET. The enzymes were purchased as a catalytic domain GST Tag DDR1(#PR6913A) and DDR2 (#PR7167A) from ThermoFisher. Assay conditions were as indicated by the kit manufacturers. Assays were performed in 384-well plates. The final read out was generated using an EnVision plate reader (Perkin-Elmer). The emission ratio was calculated by dividing the acceptor/tracer emission (665 nm) by the antibody/donor emission (615 nm). Values were plotted against the inhibitor concentration and fit to a sigmoid dose-response curve using Activity base by IDBS software.

DDR1 [2] = target: T2, DDR1 (Mus musculus, UniProt Q03146); test: Cellular assay: inhibition of Collagen I-induced DDR1 autophosphorylation in HEK293T cells transiently transfected with DDR1 plasmid (Western blot); format: cell-based, human; conditions: pcDNA3.1 DDR1 WT mouse plasmid, compound 1 h, then 10 µg/mL Collagen I 1 h, P-DDR1 (Y513), read-out: pDDR1 EC50
T2 construct: expressed in transfected cells; host or cells: HEK293T
T2 sequence (Q03146 20-911): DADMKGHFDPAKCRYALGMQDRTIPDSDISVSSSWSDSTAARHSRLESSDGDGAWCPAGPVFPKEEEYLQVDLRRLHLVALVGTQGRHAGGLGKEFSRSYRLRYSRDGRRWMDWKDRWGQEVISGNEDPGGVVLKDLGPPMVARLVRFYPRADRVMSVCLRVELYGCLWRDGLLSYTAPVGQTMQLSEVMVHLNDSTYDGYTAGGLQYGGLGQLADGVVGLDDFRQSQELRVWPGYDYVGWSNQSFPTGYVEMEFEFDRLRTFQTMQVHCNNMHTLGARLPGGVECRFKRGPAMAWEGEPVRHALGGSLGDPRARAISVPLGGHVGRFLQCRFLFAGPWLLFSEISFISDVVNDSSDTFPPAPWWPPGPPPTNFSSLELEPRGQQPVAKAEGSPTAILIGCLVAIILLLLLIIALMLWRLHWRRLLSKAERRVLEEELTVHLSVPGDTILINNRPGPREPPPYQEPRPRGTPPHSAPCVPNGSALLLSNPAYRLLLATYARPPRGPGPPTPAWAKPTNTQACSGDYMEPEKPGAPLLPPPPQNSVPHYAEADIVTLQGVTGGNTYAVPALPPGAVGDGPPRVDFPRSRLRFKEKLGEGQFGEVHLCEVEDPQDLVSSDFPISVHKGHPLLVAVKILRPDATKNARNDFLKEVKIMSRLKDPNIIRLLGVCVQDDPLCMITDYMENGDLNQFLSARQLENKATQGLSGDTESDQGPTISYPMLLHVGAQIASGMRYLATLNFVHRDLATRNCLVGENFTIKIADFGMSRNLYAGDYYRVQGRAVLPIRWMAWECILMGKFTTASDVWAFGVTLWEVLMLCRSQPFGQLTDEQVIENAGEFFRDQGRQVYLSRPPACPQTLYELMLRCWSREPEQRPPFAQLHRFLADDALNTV
Procedure: DDR1/2 cellular assay: Transient transfection of HEK293T cells with DDR1 plasmid is used to study the inhibition of the autophosphorylation of DDR1 induced by Collagen I in cells. HEK293T are seeded, 6x10^5 cells per well in 6-well plates and incubated for 6 h at 37 °C, 5% CO2. Then, cells are transfected using Effectene reactive (Quiagen) with pcDNA3.1 DDR1 WT mouse plasmid. Cells are incubated with transfection complexes under normal growth conditions for 24 h. After that, medium is replaced with fresh medium and cells are incubated for an additional 18 h. Eight serial 1:3 compound dilutions are made in DMSO. The compounds are added to each well of 6 well cell plates and are incubated at 37 °C under CO2 atmosphere 1 h. DDR1's autophosphorylation is stimulated by 1h treatment with 10 µg/mL Collagen I. Then, cells are washed in PBS, lyse adding 100 µl of complete RIPA protein lysis buffer (RIPA Buffer, 1 mM DTT, 5 mM Bezamidine, 10 µg/mL Aprotinin, 10 µg/mL Leupeptin, 710 ng/mL Pepstatin A, 100 µg/mL Trypsin Inhibitor, 40 µg/mL Bestatin, completed with PhosSTOP EASYpack and complete Mini, EDTA-free) and incubated 20 minutes at 4 °C and then centrifugated. Lysates are kept at -80 °C. The protein content of the lysates is determined by DC protein assay (Biorad, Ref. 5000116). The proteins are resolved by SDS-PAGE and transferred to nitrocellulose membrane (GE Healthcare #10600003). The membranes are incubated overnight at 4 °C with antibodies specific for DDR1 (D1G6) (Cell signaling #5583), P-DDR1 (Y513) (E1N8F) (Cell Signaling # 14531) they are washed and then incubated with Alexa Fluor 680 goat anti-rabbit IgG secondary antibodies (Invitrogen, A21076). The bands are visualized and quantified using an Odyssey infrared imaging system (Li-Cor Biosciences). The percentage of DDR1 phosphorylation is finally plotted against concentration for each compound and EC50s for intracellular DDR1 inhibition are calculated using ActivityBase from IDBS.

DDR2 = target: T3, DDR2 (Homo sapiens, UniProt Q16832); test: LanthaScreen Eu-Kinase Binding Assay (TR-FRET tracer displacement), DDR2; conditions: catalytic domain GST Tag DDR2; Kinase Tracer 178
T3 construct: The enzymes were purchased as a catalytic domain GST Tag DDR1(#PR6913A) and DDR2 (#PR7167A); purchased ThermoFisher PR7167A
T3 sequence (Q16832 563-849 limits assumed): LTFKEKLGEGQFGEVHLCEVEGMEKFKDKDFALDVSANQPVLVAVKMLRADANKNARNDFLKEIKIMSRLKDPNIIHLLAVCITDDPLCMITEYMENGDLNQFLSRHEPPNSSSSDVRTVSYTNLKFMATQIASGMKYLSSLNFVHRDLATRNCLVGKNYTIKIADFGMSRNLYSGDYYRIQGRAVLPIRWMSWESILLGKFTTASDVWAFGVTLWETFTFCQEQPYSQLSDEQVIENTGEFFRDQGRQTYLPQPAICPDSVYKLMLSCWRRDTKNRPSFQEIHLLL
Excerpt: as §1

T1 sequence (Q08345 610-905 limits assumed): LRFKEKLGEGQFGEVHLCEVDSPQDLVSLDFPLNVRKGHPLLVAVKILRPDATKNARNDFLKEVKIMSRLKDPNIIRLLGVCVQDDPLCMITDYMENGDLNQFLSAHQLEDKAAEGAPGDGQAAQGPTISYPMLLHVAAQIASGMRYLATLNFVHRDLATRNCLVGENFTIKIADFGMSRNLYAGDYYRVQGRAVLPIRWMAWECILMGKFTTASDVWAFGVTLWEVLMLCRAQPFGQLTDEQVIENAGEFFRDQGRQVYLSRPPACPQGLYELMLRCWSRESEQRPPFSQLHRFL

SMILES	IC50 (DDR1 [1]) [nM]	EC50 (DDR1 [2]) [nM]	IC50 (DDR2) [nM]
COc1ccc(-c2c(-c3ccnc(Nc4ccc(N5CCN(C)CC5)cc4)n3)sc3nccc(=O)n23)cc1 [Compound 54, 3-(4-Methoxy-phenyl)-2-{2-[4-(4-methyl-piperazin-1-yl)-phenylamino]-pyrimidin-4-yl}-thiazolo[3,2-a]pyrimidin-5-one]	4.19	18.2	28.8
NS(=O)(=O)c1cccc(Nc2nccc(-c3sc4nccc(=O)n4c3-c3ccccc3Cl)n2)c1 [Compound 37, 3-{4-[3-(2-Chloro-phenyl)-5-oxo-5H-thiazolo[3,2-a]pyrimidin-2-yl]-pyrimidin-2-ylamino}-benzenesulfonamide]	5.19	36	24.2
Cc1cc(=O)n2c(-c3ccccc3)c(-c3ccnc(Nc4cccc(N5CCN(CCO)CC5)c4)n3)sc2n1 [Compound 72, 2-(2-{3-[4-(2-Hydroxy-ethyl)-piperazin-1-yl]-phenylamino}-pyrimidin-4-yl)-7-methyl-3-phenyl-thiazolo[3,2-a]pyrimidin-5-one]	9.06	59	26.9
O=c1ccnc2sc(-c3ccnc(Nc4ccccc4)n3)c(-c3ccccc3)n12 [Compound 29, 3-Phenyl-2-(2-phenylamino-pyrimidin-4-yl)-thiazolo[3,2-a]pyrimidin-5-one]	69.9	339	186
NS(=O)(=O)c1cccc(Nc2nccc(-c3sc4nccc(=O)n4c3-c3ccc(Cl)cc3)n2)c1 [Compound 43, 3-{4-[3-(4-Chloro-phenyl)-5-oxo-5H-thiazolo[3,2-a]pyrimidin-2-yl]-pyrimidin-2-ylamino}-benzenesulfonamide]	11.6	31.4	29
CCc1c(C)nc2sc(-c3ccnc(Nc4cccc(N5CCN(CCO)CC5)c4)n3)c(-c3ccccc3)n2c1=O [Compound 77, 6-Ethyl-2-(2-{3-[4-(2-hydroxy-ethyl)-piperazin-1-yl]-phenylamino}-pyrimidin-4-yl)-7-methyl-3-phenyl-thiazolo[3,2-a]pyrimidin-5-one]	25.5	46.8	69.4
CC(C)c1cc(=O)n2c(-c3ccccc3)c(-c3ccnc(Nc4cccc(N5CCN(CCO)CC5)c4)n3)sc2n1 [Compound 73, 2-(2-{3-[4-(2-Hydroxy-ethyl)-piperazin-1-yl]-phenylamino}-pyrimidin-4-yl)-7-isopropyl-3-phenyl-thiazolo[3,2-a]pyrimidin-5-one]	12.5		33.3
COc1ccccc1-c1c(-c2ccnc(Nc3cccc(N4CCN(CCO)CC4)c3)n2)sc2nccc(=O)n12 [Compound 47, 2-(2-{3-[4-(2-Hydroxy-ethyl)-piperazin-1-yl]-phenylamino}-pyrimidin-4-yl)-3-(2-methoxy-phenyl)-thiazolo[3,2-a]pyrimidin-5-one]	9.5	27.8	24.4
COc1ccc(-c2c(-c3ccnc(Nc4cccc(N5CCN(CCO)CC5)c4)n3)sc3nccc(=O)n23)cc1 [Compound 53, 2-(2-{3-[4-(2-Hydroxy-ethyl)-piperazin-1-yl]-phenylamino}-pyrimidin-4-yl)-3-(4-methoxy-phenyl)-thiazolo[3,2-a]pyrimidin-5-one]	5.46	19.3	16.8
CN1CCN(c2ccc(Nc3nccc(-c4sc5nccc(=O)n5c4-c4ccc(O)cc4)n3)cc2)CC1 [Compound 57, 3-(4-Hydroxy-phenyl)-2-{2-[4-(4-methyl-piperazin-1-yl)-phenylamino]-pyrimidin-4-yl}-thiazolo[3,2-a]pyrimidin-5-one]	4.54	21.1	15
CCc1cc(=O)n2c(-c3ccccc3)c(-c3ccnc(Nc4cccc(N5CCN(CCO)CC5)c4)n3)sc2n1 [Compound 74, 7-Ethyl-2-(2-{3-[4-(2-hydroxy-ethyl)-piperazin-1-yl]-phenylamino}-pyrimidin-4-yl)-3-phenyl-thiazolo[3,2-a]pyrimidin-5-one]	12.9	39.5	11.6
COc1ccc(-c2c(-c3ccnc(Nc4cccc(N5CCN(CCO)CC5)c4)n3)sc3nccc(=O)n23)cc1Cl [Compound 62, 3-(3-Chloro-4-methoxy-phenyl)-2-(2-{3-[4-(2-hydroxy-ethyl)-piperazin-1-yl]-phenylamino}-pyrimidin-4-yl)-thiazolo[3,2-a]pyrimidin-5-one]	10.9	82.7	54
CN1CCN(c2ccc(Nc3nccc(-c4sc5nccc(=O)n5c4-c4ccccc4O)n3)cc2)CC1 [Compound 55, 3-(2-Hydroxy-phenyl)-2-{2-[4-(4-methyl-piperazin-1-yl)-phenylamino]-pyrimidin-4-yl}-thiazolo[3,2-a]pyrimidin-5-one]	2.28	21.8	6.37
COc1cnc(Nc2cccc(S(N)(=O)=O)c2)nc1-c1sc2nccc(=O)n2c1-c1ccccc1 [Compound 69, 3-[5-Methoxy-4-(5-oxo-3-phenyl-5H-thiazolo[3,2-a]pyrimidin-2-yl)-pyrimidin-2-ylamino]-benzenesulfonamide]	6880		8620
Cc1nc2sc(-c3ccnc(Nc4cccc(N5CCN(CCO)CC5)c4)n3)c(-c3ccccc3)n2c(=O)c1C(C)C [Compound 76, 2-(2-{3-[4-(2-Hydroxy-ethyl)-piperazin-1-yl]-phenylamino}-pyrimidin-4-yl)-6-isopropyl-7-methyl-3-phenyl-thiazolo[3,2-a]pyrimidin-5-one]	64.4		292

Reference: patent publication EP4032896A1, “THIAZOLOPYRIMIDONES AS INHIBITORS OF DDR1/2 AND THERAPEUTIC USES THEREOF” (Fundación del Sector Público Estatal Centro Nacional de …, priority 2021, dated 2022)
